Results published in patent publication US7749728B2, “Method and system for measuring the penetration of drugs and other substances into tissue” (Cabenda Pharmaceutical Research Limited, priority 2003, dated 2010).

Key:
HCT-116 MCCs [1] = assay: MCC penetration assay, effect-based (BrdUrd S-phase labeling after exposure from one side); type: cell-based, human; settings: for decrease in drug exposure seen by cells on the far side relative to the near side / trend of BrdUrd labeling with drug concentration: 1 day after 1-h exposure; for decrease in drug exposure seen by cells on the far side relative to the near side: near-side concentration matching the effect of 10 μM on the far side; for trend of BrdUrd labeling with drug concentration: first 30 μm of tissue
Description: Standard tissue culture inserts 10 (CM 12 mm, pore size 0.4 μm, Millipore, Nepean, ON, Canada) were coated with 150 μl collagen (rat tail type I, Sigma), dissolved in 0.01 M HCl and diluted 1:4 with 60% Ethanol to 0.75 mg/ml, and allowed to dry over night. HCT-116, 0.75×10^6 in 0.5 ml growth media, were then added to the inserts 10 and incubated for 15 hours to allow the cells to attach. The cultures 16 were then incubated for 2 days in custom built growth vessels 21 (FIG. 1(b)) to form multilayered cell cultures (MCCs) 16 which are ˜150 μm in thickness. Each growth vessel 21 includes a frame 23 that held the inserts 10 completely immersed in 130 ml of stirred media (700 rpm, 25 mm stir bar) under continual gassing (5% CO2, balance air) at 37° C. The MCCs 16 were grown in batches of 8 cultures of which 6 were treated with drug and 2 were kept as untreated controls.
MCCs 16 were exposed to anthracyclines from one exposed side 18 using a polyarcylate apparatus 22 (FIG. 2) designed such that the bottom of each insert 10 is clamped against a flat block 24 of apparatus 22 with a layer of Parafilm (American National Can, Chicago, Ill., USA) sandwiched in between to ensure a complete seal. Each MCC 16 was exposed to a 7.5 ml stirred reservoir 28 kept under controlled gassing and temperature. A silicone O-ring 34 was used to seal the gap between the MCC 16 and the orifice in the reservoir 28. Once placed in the apparatus 22, MCCs 16 were allowed to equilibrate for 45 minutes, drug was then added to the growth medium at concentrations of 0.3, 1, 3 and 10 μM. After 1-hour drug exposure, the reservoirs 28 were rinsed twice with fresh media. MCCs 16 were then incubated for a second hour prior to removal from the apparatus 22 to allow initial drug wash out from the exposed side 18 only. MCCs 16 were then removed, rinsed in fresh media three times for 15 seconds and placed in a growth vessel 21 containing 2 untreated control MCCs 16. Media was replaced at 1 and 4 hours following return to the growth vessel 21, to reduce residual drug levels. Incubation with control MCCs 16 ruled out the possibility that drug wash out into the media from the exposed sides 18 of the MCCs 16 was affecting results. MCCs 16 were left for 1 or 3 days from the time of beginning drug exposure to allow manifestation of drug effect. Following this, 100 μM BrdUrd (5-bromo-2-deoxyuridine, Sigma Chemical, Oakville, ON, Canada) was added to the media and cultures incubated for 4 hours to label S-phase cells. MCCs 16 were then removed, frozen in O.C.T. medium (Tissue-TEK, Torrance, Calif., USA) and stored at −80° C. until sectioning.
MCC cryosections (10 μm) were air dried for 24 hours and then fixed in a 1:1 mixture of acetone-methanol for 10 minutes at room temperature. Slides were immediately transferred to distilled water for 10 minutes and then treated with 2 M HCl at room temperature for 1 hour followed by neutralization for 5 minutes in 0.1 M Sodium Borate. Slides were then washed in distilled water and transferred to a PBS (phosphate buffered saline) bath. Subsequent steps were each followed by a 5 minute wash in PBS. BrdUrd incorporated into DNA was detected using a 1:200 dilution of monoclonal mouse anti-BrdUrd (clone BU33, Sigma) followed by 1:100 dilution of anti-mouse peroxidase conjugate antibody (Sigma) and 1:10 dilution of metal enhanced DAB substrate (Pierce, Rockford, Ill.). Slides were then counterstained with haematoxylin, dehydrated and mounted using Permount (Fisher Scientific, Fair Lawn, N.J., USA).
The imaging system consisted of a flurouresence microscope (Zeiss III RS, Oberkochen, Germany), a cooled, monochrome CCD video camera (model 4922, Cohu, San Diego, Calif., USA), frame grabber (Scion, Frederick, Md., USA), a custom built motorized x-y stage and customized NIH-Image software (public domain program developed at the U.S. National Institutes of Health) running on a G4 Macintosh computer. […]

cells = settings: uptake rate vs DOX; cited from earlier work
[2] = weak bases; cited from earlier work
HCT-116 MCCs [3] = assay: Fluorescence based evaluation of anthracycline penetration in MCCs; type: cell-based, human; settings: immediately after 1-h, 10 µM drug exposure
Description: MCCs 16 were exposed to anthracyclines from one exposed side 18 using a polyarcylate apparatus 22 (FIG. 2) designed such that the bottom of each insert 10 is clamped against a flat block 24 of apparatus 22 with a layer of Parafilm (American National Can, Chicago, Ill., USA) sandwiched in between to ensure a complete seal. Each MCC 16 was exposed to a 7.5 ml stirred reservoir 28 kept under controlled gassing and temperature. A silicone O-ring 34 was used to seal the gap between the MCC 16 and the orifice in the reservoir 28. […] After 1-hour drug exposure, the reservoirs 28 were rinsed twice with fresh media. […]
The imaging system consisted of a flurouresence microscope (Zeiss III RS, Oberkochen, Germany), a cooled, monochrome CCD video camera (model 4922, Cohu, San Diego, Calif., USA), frame grabber (Scion, Frederick, Md., USA), a custom built motorized x-y stage and customized NIH-Image software (public domain program developed at the U.S. National Institutes of Health) running on a G4 Macintosh computer. […] For drug fluorescence visualization, MCCs were imaged using unmounted cryosections 1-hour after sectioning using a 510-555 nm excitation filter and a 575-640 nm emission filter.
Using the NIH-Image software application and user supplied algorithms, digital images of BrdUrd staining and drug fluorescence within MCC cryosections were analyzed in the following manner. […]

[4] = system: V79 multicellular spheroids; settings: ~3.5 μM×h exposure, 24 hours in drug free medium before disaggregation; cited from earlier work
[5] = system: multi-layered cell culture; assay: Example 1: BrdUrd labeling in multi-layered cell culture exposed from one side; type: cell-based; settings: one hour exposure from one side, 24 hours in fresh media; 5, 10 and 100 μM
Description: FIGS. 5 and 6 illustrate test results relating to a multi-layered cell culture 16 exposed to the anthracycline doxorubicin (DOX) (i.e. the test material). Cultures 16 were exposed to doxorubicin (at differing concentrations) from one side 18 only for one hour and then incubated for 24 hours in fresh media. Cultures 16 were then exposed to bromodeoxyuridine (BrdUrd) for two hours to label proliferating cells. BrdUrd is a thymidine analogue that is incorporated into DNA during the S phase of the cell cycle and is therefore an effective marker of cellular proliferation. Following BrdUrd exposure, cultures 16 were frozen and cyrosections taken from them. Cryosections were then immunostained to detect BrdUrd labeled S-phase cells. FIG. 6 illustrates the distribution of BrdUrd-labelled cells as a function of position within the cultures. The results clearly indicate that tissue penetration limits doxorubicin effectiveness.

Compound	decrease in drug exposure seen by cells on the far side relative to the near side (HCT-116 MCCs [1])	trend of BrdUrd labeling with drug concentration (HCT-116 MCCs [1])	rate of entering cells relative to DOX (cells)	pKa [2]	fluorescence level on the near side relative to DOX (HCT-116 MCCs [3]) [times]	surviving fraction, 130 μm into the tissue [4]	surviving fraction, exposed outer layers [4]	effect on proliferating cells as a function of position within the culture [5]	concentration at which an equal effect is exerted on either edge of the MCC (HCT-116 MCCs [1]; 1 hour exposure at 0.3, 1, 3 and 10 μM, 1 day incubation) [µM]
COc1cccc2c1C(=O)c1c(O)c3c(c(O)c1C2=O)C[C@@](O)(C(C)=O)C[C@@H]3O[C@H]1C[C@H](N)[C@H](O)[C@H](C)O1 [DAU, daunorubicin]	~30 fold	decreasing labeling with increasing drug concentration	3-10 times	~8.3	~7	–	–	–	–
COc1cccc2c1C(=O)c1c(O)c3c(c(O)c1C2=O)C[C@@](O)(C(=O)CO)C[C@@H]3O[C@H]1C[C@H](N)[C@H](O)[C@H](C)O1 [DOX, doxorubicin]	~12 fold	decreasing labeling with increasing drug concentration	–	~8.3	–	~0.6	~0.2	at low concentrations doxorubicin only affects cells close to the site of exposure	–
COc1cccc2c1C(=O)c1c(O)c3c(c(O)c1C2=O)C[C@@](O)(C(=O)CO)C[C@@H]3O[C@H]1C[C@H](N)[C@@H](O)[C@H](C)O1 [EPI, epirubicin]	~10 fold	decreasing labeling with increasing drug concentration	approximately twice	~8.1	~1.5	–	–	–	10
O=C1c2c(O)ccc(O)c2C(=O)c2c(NCCNCCO)ccc(NCCNCCO)c21 [MIT, mitoxantrone]	greater than 30 fold	increase in labeling on the near side with increasing drug concentration	–	~8.3	–	–	–	–	–
